Where two headings read alike, the source gives them in different places.
Assays:
[1] = system: SARS-CoV-2 clinical omicron isolate; assay: microbe, parasite or virus in culture; conditions: Severe acute respiratory syndrome coronavirus 2, Calu-3
[2] = system: SARS-CoV-2 clinical omicron isolate

Compound	IC50 [1]	Therapeutic range: CC50/IC50, CTG ([2]; SARS-CoV-2 omicron in Calu-3 cells, CC50 by CTG)	Therapeutic range: CC50/IC50, IncuCyte ([2]; SARS-CoV-2 omicron in Calu-3 cells, CC50 by IncuCyte)	Therapeutic range: CC50/IC50, MTT ([2]; SARS-CoV-2 omicron in Calu-3 cells, CC50 by MTT)	Therapeutic range: CC50/IC50, CTG ([2]; human, calu-3 cells)	Therapeutic range: CC50/IC50, IncuCyte ([2]; human, calu-3 cells)	Therapeutic range: CC50/IC50, MTT ([2]; human, calu-3 cells)
COc1[nH]c(=O)c(C(=O)C(C)CC(C)C(Cl)CCl)c(O)c1OC (centres unmarked) [Atpenin A5]	0.68 µM	CTG: 1.3	IncuCyte: > 117.6	MTT: 1.8			
[H]/N=C(/N)N/C(=N/[H])NCCc1ccccc1 [Phenformin, phenformin]	1.35 µM				CTG: 1674	IncuCyte: 1111	MTT: 1123

Reference: patent EP4268810A1 (priority 2022, dated 2023)
